These results are taken from patent US8688427B2, “Enzyme catalysts for diels-alder reactions” (University of Washington, priority 2008, dated 2014).

Where a chain is given by its changes, count along the chain named. In names and notes the source's numbering stands. Like-named read-outs stand apart in the source and are kept apart here.

Data set [1] concerns Diels-Alderase DA_20_00, computational design on Loligo vulgaris diisopropylfluorophosphatase scaffold (PDB-ID 1E1A, SEQ ID NO:2), SEQ ID NO:4. As to the kind of experiment: Kinetics of Diels-Alder reaction catalysed by original design DA_20_00. The class given is biochemical. As to conditions: 298K, PBS, error = 95% confidence interval. How it is done: (§1) The Diels-Alder reactions were performed in PBS, at 25° C., with 4% DMSO. The DMSO came from the diene, for which the stock solution (100 mM) was made in DMSO and always diluted such that the final reaction would contain 4% DMSO. After incubation of the desired amount of diene and dienophile in the presence or absence of the protein, time points were taken of the reaction (5 μL) and quenched in a solution of 80:20 acetonitrile:water with 0.1% formic acid and 1 mM Benzoic Acid (95 μL). This reaction was incubated for 5 minutes and then the precipitated protein filtered using a Millipore multiscreen solvinert filter plate (Product Number: MSRLN0450). 20 μL of the filtered quench solution was then injected and analyzed using a liquid chromatography-tandem mass spectroscopy (LC-MSMS) assay.
This active design (DA—20—00) was created from a 6-bladed beta barrel propeller scaffold (PDB-ID 1E1A; a diisopropylfluorophosphatase from Loligo vulgaris). […]
The errors represent the calculated 95% confidence interval. The parameter a describes the cooperativity of binding between the two substrates: a value greater than one indicates negative cooperativity, whereas a value lower then one indicates positive cooperativity. α could not be determined for DA—20—00. […]

The test system of data set [2] is Diels-Alderase DA_20_10, variant of DA_20_00 (Loligo vulgaris diisopropylfluorophosphatase scaffold, SEQ ID NO:2) with A21T/A74I/S271A/A173C/Q149R/A272N, SEQ …. The data set can be described thus: Kinetics of Diels-Alder reaction catalysed by optimized DA_20_10. The class given is biochemical. The following applies: 298K. How it is done: (A) Dependence of reaction velocity on diene concentration for different fixed dienophile concentrations. The diene concentration was varied from 3.0 to 0.18 mM with a fixed concentration of 100 mM (⋄), 66 mM (Δ), 44 mM (⋄), 30 mM (◯), 20 mM (◯), or 13 mM (●) dienophile (B) Dependence of reaction velocity on dienophile concentration for different fixed diene concentrations. The dienophile was varied from 100 to 13.0 mM with a fixed concentration of 3 mM (♦), 2 mM (▴), 1.3 mM (∇), 0.9 mM (Δ), 0.6 mM (⋄), 0.4 mM (□), 0.26 mM (◯), or 0.18 mM (●) […]. Reactions were carried out with 20 μM protein in PBS at 298 K.
as §1
To summarize the optimization rounds, residues contacting the transition state in DA—20—00 were mutated individually to sets of residues predicted to retain or improve transition state binding and bolster the two catalytic residues. […] Three of the mutations (FIG. 6C) likely improve the packing around the transition state (A741, A21 T) or catalytic glutamine (A173C). Two of the mutations likely improve the overall electrostatic complementarity with the bound substrates and transition state: Q149R hydrogen bonds to the carboxylate on the diene and S271A makes the dienophile environment more non polar.
The kinetics of the DA—20—10 catalyzed reaction was characterized by measuring the dependence of the reaction velocity on the concentration of both diene and dienophile. The effective molarity (kcat/kuncat) of DA—20—10 is 100 M, and the rate enhancement (kcat/(kuncat*KM_diene)) in the presence of saturating dienophile and limiting diene is 1.0×10^5. At high substrate concentrations DA—20—10 proceeds for more than 30 turnovers before the enzyme loses activity. At higher enzyme concentrations more than 80% of the diene substrate is converted to product.
The errors represent the calculated 95% confidence interval. The parameter a describes the cooperativity of binding between the two substrates: a value greater than one indicates negative cooperativity, whereas a value lower then one indicates positive cooperativity. α could not be determined for DA—20—00. Kinetic parameters for catalytic antibodies 7D4 and 4D5 were taken from (10, 17).

Data set [3] has as its system catalytic antibody mAb 7D4. As to conditions: 310K, cited from earlier work.
Data set [4] deals with catalytic antibody mAb 4D5. As to conditions: 310K, cited from earlier work.
The next data set has as its system catalytic antibody 1E9. As to conditions: with N-ethyl maleimide as second substrate; cited from earlier work.
Data set [5] in a line: Production run and effects of knocking out the catalytic residues. The class given is biochemical. The following applies: for decrease of catalytic activity on mutation of a catalytic residue of DA_20_10: relative to DA_20_10. The protocol: The reaction was carried out in 1 mM diene, 50 mM dienophile, 200 μM enzyme, in PBS at 298K. The proteins assayed are DA—20—10 (υ), Y121F (▴), Q195E (x), and tela scaffold (*), uncatalyzed (λ).
To determine whether the observed activity depends on the designed active site, we investigated the contributions of the designed catalytic residues in DA—20—10 to catalysis. Glutamine 195 was mutated into a glutamate (Q195E) and tyrosine 121 was mutated into a phenylalanine (Y121F). We had originally incorporated a glutamine rather than a glutamate at this position, despite the fact that the carboxylate should make a stronger hydrogen bond with the diene carbamate. This hydrogen bond should increase the energy of the diene HOMO (and thus decrease the energy gap with the dienophile LUMO), and more greatly stabilize the transition state. However, we were concerned that the substantial free energy cost of desolvating the carboxylate would considerably reduce binding affinity for the diene. […] The Y121F mutation decreases catalytic activity by 27-fold, consistent with the removal of a hydrogen bond that contributes to dienophile binding, stabilizes the dienophile LUMO, and is enhanced in the transition state.
Timepoints were taken and measured as previously described over a period of 60 hours.

The nature of data set [6]: Diels-Alder activity assay with purified protein, LC-MSMS product detection. As to conditions: PBS. The class given is biochemical. How it is done: The observed velocity for each mutant was normalized by the velocity of DA—20—00 in order to determine the effective rate enhancement conferred by each mutation. The reactions were done at 1 mM diene, and 10 mM dienophile, PBS, 298K, and 100 μM protein.
Mutations showing enhanced activity on DA—20—04 were sequenced, grown large scale, and assayed. The assay was done at 0.1 mM dieine, 3 mM dienophile, PBS, 298K, and 20 μM protein.
as §1
A total of 43 variants were assayed using the standard activity assay. The observed activities are described in Table 2. In Table 2, the Expression column provides the number of times the mutant was expressed; the Observed column reports the raw signal level out of the mass-spec for the product (the Observed column is not normalized nor background corrected); the Concentration column provides the concentration of the protein after large-scale expression. […]

Data set [7] is described as follows: Plate assay of crude cell lysate, second round of active site optimization. As to conditions: Mutations Recombined; single mutations on DA_20_04; Neg_Control 0, Pos_Control 1. The class given is biochemical. The protocol: Since it was unreasonable to prepare the 176 enzyme variants in large scale, a plate assay was developed in which colonies directly from a Kunkel mutagenesis (8) reaction could be screened. Kunkel mutagenesis reactions were transformed directly into BL21(DE3)™ (Invitrogen) in order to generate each of the desired mutants. Four colonies from each plated reaction was picked and grown at 37° C. in 0.5 mL of LB-Kanamycin overnight. […]. This culture was grown for 2-3 hours at 37° C., after which 50 μL of 10 mM IPTG was added to each well (0.5 mM Final) in order to induce expression. The cells were then grown for 24 hours at 18° C., harvested, and stored at −20° C. until ready for assaying. To assay, crude cell lysate was prepared by resuspending the cells in 500 uL of PBS and lysing through 3 freeze/thaw cycles (15 minutes at −80° C., 40 minutes at 25° C.), followed by centrifugation at 4000 rpm for 30 minutes. […] Samples from each reaction were then quenched and product detected using a liquid chromatography-tandem mass spectroscopy.
To help remove some of this noise, samples showing WT activity were discarded if at least 2 of the other colonies picked from that Kunkel reaction did show an effect on activity (either greater or less than WT). […] The relative effect of each mutation was calculated. […]

In general, kcat refers to the number of substrate molecules converted per active site and unit of time at saturation. As a reminder, the Km is the substrate concentration at which the rate is half of its maximum. For `C=C/C=C/NC(=O)OCc1ccc(C(=O)O)cc1` [diene, 4-carboxybenzyl trans-1,3-butadiene-1-carbamate], the kcat in data set [1] (diene + dienophile reaction) is 2.8e-06 ± 5.6e-07 s⁻¹; in data set [2] (PBS, 20 μM protein, diene + dienophile reaction, error = 95% confidence interval), 0.000678 ± 8.3e-05 s⁻¹; in data set [3] (diene + dienophile reaction) it was 5.83e-05 s⁻¹; in data set [4] (diene + dienophile reaction) it was 5.83e-05 s⁻¹. Further, the Michaelis-Menten constant (Km) is 3530 ± 1500 µM in data set [1] (read-out: KM-diene); 980 ± 200 µM in data set [2] (PBS, 20 μM protein, error = 95% confidence interval, read-out: KM-diene); 960 µM in data set [3] (read-out: KM-diene); 1600 µM in data set [4] (read-out: KM-diene). In addition, the “a (cooperativity of binding between the two substrates)” value in data set [2] (diene and dienophile, >1 indicates negative cooperativity) is 1.7 ± 0.7; in data set [3] (diene and dienophile), 1; in data set [4] (diene and dienophile), 1. The “effective molarity (kcat/kuncat)” value in data set [2] (diene + dienophile reaction) was 100 M.
With `C=CC(=O)N(C)C` [dienophile, N,N-dimethylacrylamide], the Km is 58100 ± 14000 µM in data set [2] (PBS, 20 μM protein, error = 95% confidence interval, read-out: KM-dienophile); 1700 µM in data set [3] (read-out: KM-dienophile); 5900 µM in data set [4] (read-out: KM-dienophile).
Regarding `O=S1(=O)C(Cl)=C(Cl)C(Cl)=C1Cl` [tetrachlorothiophene dioxide], in the data set with catalytic antibody 1E9, the catalytic proficiency was 10^7 M^−1 and the effective molarity is 10^3 M.

B1: wild-type scaffold: diisopropylfluorophosphatase from Loligo vulgaris (PDB-ID 1E1A) (protein, listed as Loligo vulgaris)
chain: MEIPVIEPLFTKVTEDIPGAEGPVFDKNGDFYIVAPEVEVNGKPAGEILRIDLKTGKKTVICKPEVNGYGGIPAGCQCDRDANQLFVADMRLGLLVVQTDGTFEEIAKKDSEGRRMQGCNDCAFDYEGNLWITAPAGEVAPADYTRSMQEKFGSIYCFTTDGQMIQVDTAFQFPNGIAVRHMNDGRPYQLIVAETPTKKLWSYDIKGPAKIENKKVWGHIPGTHEGGADGMDFDEDNNLLVANWGSSHIEVFGPDGGQPKMRIRCPFEKPSNLHFKPQTKTIFVTEHENNAVWKFEWQRNGKKQYCETLKFGIF
Consider B1, for which, in data set [5], the “activity (in words)” value was “did not show any measurable activity”.

B2: DA_20_00: original Diels-Alder enzyme design on diisopropylfluorophosphatase scaffold (PDB-ID 1E1A) (protein)
chain: MEIPVIEPLFTKVTEDIPGAAGPVFDKNGDFYIVAPYVEVNGKPAGEILRIDLKTGKKTVICKPEVNGYGGIPAGCQCDRDANQLFVADMRLGLLVVQTDGTFEEIAKKDSEGRRMQGCAYCAFDYEGNLWITAPAGEVAPADFTISLQEKFGSIYCFTTDGQMIQVDTAFQAPAGIAVRHMNDGRPYQLIVAEQPTKKLWSYDIKGPAKIENKKVWGHIPGTHKGGAAGMDFDEDNNLLVANWGSSHIEVFGPDGGQPKMRIRCPFEKPSALHFKPQTKTIFVTEHENNAVWKFEWQRNGKKQYCETLKFGIFGSLEHHHHHH
modifications: Enzyme catalyst for Diels-Alder reaction
In the case of B2, the “activity versus background reaction (in words)” value in data set [6] (25° C., 4% DMSO) is on record as “increased activity over the background reaction”.

B3: DA_20_04: DA_20_00 triple mutant A21T, A74I, S271A (protein)
chain: B2 chain with A21T, A74I, S271A
modifications: Enzyme catalyst for Diels-Alder reaction
notes: DA_20_00 triple mutant A21T, A74I, S271A
With B3, in data set [6] (0.1 mM diene, 3 mM dienophile, 298K, 20 μM protein), the “product formed per hour” value is on record as 21.9 nM of product/hour. Also, the “rate enhancement over DA_20_00 (velocity normalized by velocity of DA_20_00)” value in data set [6] (1 mM diene, 10 mM dienophile, 298K, 100 μM protein) came out at 20.5 fold. In addition, the Effect on in data set [7] is 1.

B4: Y121F: DA_20_10 with tyrosine 121 mutated into a phenylalanine (protein)
chain: B2 chain with Y121F
B4: in data set [5], the “decrease of catalytic activity on mutation of a catalytic residue of DA_20_10” value is 27 fold.

B5: Q195E: DA_20_10 with glutamine 195 mutated into a glutamate (protein)
chain: B2 chain with Q195E
As to B5, the “decrease of catalytic activity on mutation of a catalytic residue of DA_20_10” value in data set [5] stood at 450 fold.
